# Legend:
# [1] = tested on: H295R adreno-cortical carcinoma cell line; assay: Steroid modulation screen in vitro; type: cell-based; settings: tested at 200 to 0.0002 μM; only at the top concentration
# Experimental: To assess potential effects on steroidogenesis, Compound 1 was screened for steroid modulation in vitro using the H295R adreno-cortical carcinoma cell line (at 200 to 0.0002 μM) and in an assay to monitor cell viability (MTT Kit). Compound 1 indicated steroid modulation potential (% over vehicle) only at 200 µM, the top concentration tested, with 100% cellular viability at concentrations ≤20 μM (90% viability at 200 μM).
# [2] = Phase 1 SAD/MAD, healthy volunteers: pharmacokinetics; type: in vivo, human
# Description: (§1) This is a first-in-human (FIH), Phase 1 study of Compound 1 that will characterize the safety, PK, and PD of Compound 1 after a single dose and after repeated dosing first in healthy adult volunteers and then in adolescents or adults with sickle cell disease. Initially, a dose range of Compound 1 in single ascending dose (SAD) escalation cohorts will be explored in healthy subjects. Enrollment of healthy subjects into 2-week multiple ascending dose (MAD) escalation cohorts will be initiated once the safety and PK from at least two SAD cohorts is available to inform the doses for the 2-week MAD portion of the study. The MAD cohorts will then run in parallel to the single dose cohorts. A single dose cohort is planned to understand food effects (FE) on the PK of Compound 1. […] Multiple dose studies in SCD subjects will then be initiated upon completion of MAD studies in healthy volunteers. Compound 1 will be administered in 25 mg and 100 mg tablets delivered orally.
# In this study, SAD/MAD cohorts are randomized (3 to 1) to receive Compound 1 or placebo (P). Compound 1 was evaluated first in 4 healthy SAD cohorts and 4 healthy MAD (14-day dosing period) cohorts. Based on the safety, and PK/PD profile from HS, Compound 1 is then evaluated in 1 SCD SAD cohort and 2 SCD MAD cohorts. Specifically, based on the safety and pharmacokinetic/pharmacodynamics (PK/PD) profile in healthy volunteer studies, Compound 1 is evaluated in patients (pts) with SCD, first in a single dose (SD or SAD) cohort and then in multiple-dose (MD or MAD) cohorts (14-day and 12-week). Safety assessments include AEs, vital signs, ECGs and laboratory parameters. PK/PD blood sampling was performed on Day 1 (SAD/MAD) and Day 14 (MAD) and up to 72 h after the last dose and at the end-of-study visit. […]
# Four healthy SAD cohorts were evaluated at doses of 200, 400, 700, and 1000 mg, and four healthy MAD cohorts received 200 to 600 mg total daily doses for 14 days at QD or BID dosing (100 mg BID, 200 mg BID, 300 mg BID, and 400 mg QD). […]
# [3] = Phase 1 SAD/MAD, healthy volunteers: safety; type: in vivo, human
# Description: as §1
# In this study, SAD/MAD cohorts are randomized (3 to 1) to receive Compound 1 or placebo (P). Compound 1 was evaluated first in 4 healthy SAD cohorts and 4 healthy MAD (14-day dosing period) cohorts. Based on the safety, and PK/PD profile from HS, Compound 1 is then evaluated in 1 SCD SAD cohort and 2 SCD MAD cohorts. Specifically, based on the safety and pharmacokinetic/pharmacodynamics (PK/PD) profile in healthy volunteer studies, Compound 1 is evaluated in patients (pts) with SCD, first in a single dose (SD or SAD) cohort and then in multiple-dose (MD or MAD) cohorts (14-day and 12-week). Safety assessments include AEs, vital signs, ECGs and laboratory parameters. PK/PD blood sampling was performed on Day 1 (SAD/MAD) and Day 14 (MAD) and up to 72 h after the last dose and at the end-of-study visit. PD parameters included 2,3-DPG, ATP, and p50 in all cohorts with additional PD studies (including oxygen scan) performed only in the SCD cohorts. PD parameters included 2,3-DPG, ATP, p50, RBC deformability with controlled deoxygenation and reoxygenation (Lorrca® oxygen scan) and varying osmolality (Lorrca® osmoscan)). To maintain study blind, pt identifiers were removed when needed.
# Four healthy SAD cohorts were evaluated at doses of 200, 400, 700, and 1000 mg, and four healthy MAD cohorts received 200 to 600 mg total daily doses for 14 days at QD or BID dosing (100 mg BID, 200 mg BID, 300 mg BID, and 400 mg QD). In the food effect (FE) cohort, 10 healthy subjects received 200 mg of Compound 1 QD with and without food.
# [4] = tested on: Berkeley SS mouse (human HgbS); assay: Berkeley SS mouse model of SCD, 7 days in chow; type: in vivo; settings: 1000 ppm in chow
# Description: Targeted gene deletions and a human transgene in the Berkeley SS mouse model result in mice that express human HgbS almost exclusively (Pászty C. Transgenic and gene knock-out mouse models of sickle cell anemia and the thalassemias. Curr Opin Hematol. 1997 March; 4(2):88-93) and mimic the genetic, hematologic, and histopathologic features of SCD in humans. These include irreversibly sickled RBCs, anemia, and multi-organ pathology.
# The effects of Compound 1 on Hgb affinity for oxygen, percentage of sickled cells, and/or Hgb were evaluated in the Berkley SS mouse. Two studies were conducted where mice received 0 or 1000 ppm Compound 1 ad libitum in mouse chow for 7 days. Blood was drawn on Day 7 and analyzed under hypoxic conditions. Red cell parameters were measured by ADVIA.
# [5] = tested on: 2,3-DPG and ATP levels in whole blood; assay: PK/PD studies in wild type mice, QDx7 oral gavage; type: in vivo, Balb/c mice
# Experimental: Two pharmacokinetic (PK)/pharmacodynamic (PD) studies were conducted in Balb/c mice that were administered Compound 1 once daily by oral gavage (formulated in 10% Cremophor EL/10% PG/80% DI water) for 7 days (QD×7) at doses of 0 (vehicle), 3.75, 7.5, 15, 30, 60 mg/kg (Study 1); 0 (vehicle), 7.5, 15, 30, 60, 120, or 240 mg/kg (Study 2). On the 7th day, whole blood was collected 24 hours after dosing and snap frozen. Samples were later thawed and analyzed by LC/MS for 2,3-DPG and ATP levels.
compound,measurement,setting,value
"O=C([C@H](CO)c1ccccc1)N1CC2=C(C1)CN(S(=O)(=O)c1cnc3c(c1)OCCO3)C2 (single isomer, unassigned) [Compound 1]",concentration at which steroid modulation potential (% over vehicle) was indicated,[1],200 µM
same,exposure under fed/fasted conditions,"[2]; food effect cohort, 200 mg",similar
same,observed clearance on day 1 and day 14,"[2]; healthy subjects, 14 days of dosing",unchanged
same,time of pharmacokinetic maximum,"[2]; healthy volunteers, single dose 400 mg, FIG. 43",1 to 2 h
same,"Grade 1 headache, incidence",[3]; HS receiving 14 days of dosing,28%
same,"Grade 1 headache, incidence",[3]; HS receiving a single dose,4%
same,related TEAE of grade 2 or less: headache,[3]; MAD cohorts,4 n
same,related TEAE of grade 2 or less: palpitations,[3]; MAD cohorts,1 n
same,related TEAE of grade 2 or less: somnolence,[3]; MAD cohorts,1 n
same,"Any TEAE, n (%)","[3]; MAD, N = 36",15 (42) n (%)
same,"Any grade 3 or greater TEAE, n (%)","[3]; MAD, N = 36",0 n (%)
same,"Drug interruption, reduction, or discontinuation due to TEAE, n (%)","[3]; MAD, N = 36",0 n (%)
same,serious adverse events / AEs leading to withdrawal,[3]; SAD and MAD cohorts of healthy volunteers,No serious adverse events (SAEs) or AEs leading to withdrawal
same,related TEAE of grade 2 or less: headache,[3]; SAD cohorts,1 n
same,related TEAE of grade 2 or less: transient ventricular tachycardia,[3]; SAD cohorts,1 n
same,"Any TEAE, n (%)","[3]; SAD, N = 24",5 (21) n (%)
same,"Any grade 3 or greater TEAE, n (%)","[3]; SAD, N = 24",1 (4) n (%)
same,"Drug interruption, reduction, or discontinuation due to TEAE, n (%)","[3]; SAD, N = 24",0 n (%)
same,Hgb increase,[4],≈ 1 g/dL
same,"reduction of 2,3-DPG levels in blood",[5]; 120 and 240 mg/kg (≥120 mg/kg) QDx7 oral,> 30%
same,ATP increase compared to vehicle,"[5]; Study 1, 30 mg/kg QDx7 oral",21%
same,ATP increase compared to vehicle,"[5]; Study 1, 60 mg/kg QDx7 oral",79%
same,ATP increase,"[5]; Study 2, 240 mg/kg QDx7 oral (highest dose)",45%
same,maximum ATP increase compared to vehicle,"[5]; Study 2, doses up to 120 mg/kg QDx7 oral",~110%
same,tolerability,"[5]; both studies, up to 240 mg/kg QDx7, no adverse clinical signs, no body weight difference",well tolerated
same,"reduction of 2,3-DPG levels in blood","[5]; ≥15 mg/kg QDx7 oral, 24 h after dosing on day 7",> 20%
same,ATP increase,[5]; ≥60 mg/kg,> 40%

# From patent US20220378756A1, “ACTIVATING PYRUVATE KINASE R” (FORMA Therapeutics, Inc., priority 2019, published 2022)
